Read-outs that look alike come from different tables or passages of the source.
What was measured:
Format in all cases: cell-based
HIV-1NL4-3 Wild Type = assay: Luminescence reduction assay, MT4 cells infected with HIV-1NL4-3 luciferase reporter virus, wild type; settings: 2% FCS
Excerpt: (§1) For this assay, HIV-1NL4-3 reporter viruses are used, which carry the luciferase164 gene (lu164) instead of the nef gene. The viruses are generated by transfection of 293T cells with the corresponding proviral pNL4-3 plasmid (Lipofectamine Reagent, Invitrogen, Karlsruhe, Germany). Starting from the proviral plasmid-DNA, viruses with defined resistance mutations in the reverse transcriptase gene are produced with the “QuikChange II XL Site-Directed Mutagenesis Kit” (Stratagene, Cedar Creek, Tex., USA). Among other things, the following mutations are generated: A98G, A98G-K103N-V108I, A98S, F227C, F227L, G190A, G190S, K101E, K101Q-K103N, K103N, K103N-F227L, K103N-G190A, K103N-G190S, K103N-M230L, K103N-N348I, K103N-P225H, K103N-V108I, K103N-V108I-P225H, K103N-V179F-Y181C, K103N-Y181C, K103N-Y181C-G190A, L100I, L100I-K103N, L100I-K103N-V179I-Y181C, L100I-K103N-Y181C, L234I, N348I, P225H, P236L, V106A, V106A-E138K, V106A-F227C, V106A-F227L, V106I, V106I-Y188L, V106M, V108I, V179F-Y181C, V179I, V179I-Y181C, Y181C, Y181C-G190A, Y181C-M230L, Y181I, Y188L. MT4 cells infected with these reporter viruses (NIH AIDS Research and Reference Reagent Program) secrete luciferase into the medium, which makes possible the luminometric quantification of the virus replication.
(§2) For the batch of a 96-well MTP, 3 million MT4 cells are pelletized, suspended in 1 ml of RPMI 1640 medium without phenol red (Invitrogen, Karlsruhe, Germany)/10% FCS/2 mmol of L-glutamine/1% Pen/Strep (Invitrogen, Karlsruhe, Germany), and incubated together with a suitable amount of the corresponding HIV-1NL4-3 reporter virus for 2 hours at 37° C. (pellet infection). Non-adsorbed viruses are then washed out with PBS, the infected cells are pelletized again, and suspended in 8 ml of RPM 11640 medium without phenol red/2% or 10% FCS/2 mmol of L-glutamine/1% Pen/Strep. Therefrom, 80 μl per well is pipetted into a white 96-well MTP in 20 μl of test substance in a suitable dilution. In order to avoid boundary effects, the edge wells of the MTP are not used for substance dilutions. The second vertical row of the MTP contains only infected cells (virus control), and the eleventh vertical row contains only non-infected cells (cell control) in each case in RPMI 1640 medium without phenol red/2% or 10% FCS/2 mmol of L-glutamine/1% Pen/Strep. The other wells of the MTP contain the compounds according to the invention in different concentrations starting from the third vertical row, from which dilution of the test substances is carried out 3^7 times in three steps up to the tenth vertical row. The test substances are dissolved in DMSO, whereby the DMSO final concentration in the test batch is ultimately 1%. The test batches are incubated for 5 days at 37° C./5% CO2, and are luminometrically evaluated after the addition of 15 μl of Lu164-buffer (65 mmol of NaCl, 300 mmol of MES, pH 5.8, 5 mmol of glutathione and 1:200 coelenterazine (5 mg/ml in 30 μM of glutathione/DMSO) (P.J.K. GmbH, Kleinblittersdorf, Germany)). In the virus control, the resulting values are in the range of 1 million RLUs (relative light units), and in the cell control, the resulting values are 300 to 400 RLUs. The EC50 values of the test substances are determined as the concentration of the treated infected cells, in which the virus replication measured in RLUs is 50% of the untreated infected cells.

HIV-1NL4-3 K103N-Y181C = assay: Luminescence reduction assay, MT4 cells infected with HIV-1NL4-3 luciferase reporter virus, RT mutant K103N-Y181C
Excerpt: as §1, §2

HIV-1LAI Wild Type = assay: AlamarBlue viability assay, HIV-1LAI-infected MT4 cells; settings: 10% FCS
Procedure: For the batch of a 96-well MTP, 3 million PBLs are pelletized, suspended in 1 ml of RPMI 1640 medium/10% FCS/2 mmol of L-glutamine/1% Pen/Strep, and incubated together with a suitable amount of HIV-1LA1 (NIH AIDS Research & Reference Reagent Program, Germantown, USA) for 2 hours at 37° C. (pellet infection). Non-adsorbed viruses are then washed out with PBS, the infected cells are pelletized again, and suspended in 18 ml of RPMI 1640 medium/10% FCS/2 mmol of L-glutamine/1% Pen/Strep/interleukin-2 (40 U/ml). Therefrom, 180 μl per well is pipetted into a white 96-well MTP in 20 μl of test substance in a suitable dilution. As an alternative, after preparation of the substance dilutions, the HIV is added by pipetting in the MTP together with the cells and is no longer washed out (supernatant infection). In order to avoid boundary effects, the edge wells of the MTP are not used for substance dilutions. The second vertical row of the MTP contains only infected cells (virus control), and the eleventh vertical row contains only non-infected cells (cell control) in each case in RPMI 1640 medium/10% FCS/2 mmol of L-glutamine/1% Pen/Strep/interleukin-2 (40 U/ml). The other wells of the MTP contain the compounds according to the invention in different concentrations starting from the third vertical row, from which dilution of the test substances is carried out 3^7 times in three steps up to the tenth vertical row. The test substances are dissolved in DMSO, whereby the DMSO final concentration in the test batch is ultimately 1%. The test batches are incubated at 37° C./5% CO2. After 5 and 7 days, in each case 50 μl of cell-free supernatant is drawn off from each well in order to determine the amount of p24 contained by means of p24 ELISA (HIV-1 p24^CA Antigen Capture Assay Kit, NCI-Frederick Cancer Research and Development Center, Frederick, USA). From the resulting values of the photometric analysis (450/620 nm), the EC50 values of the test substances are determined as the concentration of the treated infected cells, in which the amount of p24 is 50% of the untreated infected cells.
As an alternative, MT4 cells are used for testing test substances instead of PBLs. HIV-1LA1-infected MT4 cells (MOI 0.01, supernatant infection) are incubated according to the above-described pattern in RPMI 1640 medium with 2% or 10% FCS/2 mmol of L-glutamine/1% Pen/Strep in the presence of test substances for 5 days at 37° C./5% CO2 (20 μl of substance dilution and 80 μl of cells/virus per well). Then, 10 μl of AlamarBlue (Invitrogen, Karlsruhe, Germany) is added to each well, and MTPs are incubated for 3 hours at 37° C., before the fluorimetric analysis is done (544/590 nm). The resulting values are approximately 30,000 in the case of untreated, non-infected cells, and approximately 6,000 in the case of untreated infected cells. In the low concentration range, the EC50 values of the test substances are determined as the concentration of the treated infected cells, in which the fluorescence is 50% of the untreated non-infected cells (in each case relative to the values of the untreated infected cells). In addition, in the high concentration range, the CC50 values of the test substances are determined as the concentration of the treated infected cells, in which the fluorescence is 50% of the untreated, non-infected cells (in each case relative to the values of the untreated infected cells).

[1] = Human immunodeficiency virus 1, MT4, MT4 cells
[2] = Human immunodeficiency virus 1, MT4, read-out: EC50 (μM) MT4 Cells HIV-1NL4-3 K103N-Y181C 2% FCS, MT4 cells, HIV-1NL4-3 K103N-Y181C, 2% FCS

Row | SMILES | EC50 (HIV-1NL4-3 Wild Type; [1]) | EC50 (HIV-1NL4-3 K103N-Y181C; [2]) | EC50 (HIV-1LAI Wild Type; [1]) | EC50 (HIV-1NL4-3 Wild Type; MT4 cells) | EC50 (HIV-1NL4-3 K103N-Y181C; read-out: EC50 (μM) MT4 Cells HIV-1NL4-3 K103N-Y181C 2% FCS, MT4 cells, HIV-1NL4-3 K103N-Y181C, 2% FCS) | EC50 (HIV-1LAI Wild Type; MT4 cells)
1 | O=C1CN(C(=O)c2cc(-c3cc(F)cc(Cl)c3)n(-c3cncc(Cl)c3)n2)CN1 [Example 9, 1-{[5-(3-Chloro-5-fluorophenyl)-1-(5-chloropyridin-3-yl)-1H-pyrazol-3-yl]carbonyl}imidazolidin-4-one] | 0.035 µM | 0.32 µM | 0.149 µM | – | – | –
2 | O=C1CN(C(=O)c2cc(-c3cncc(C(F)(F)F)c3)n(-c3ccc(F)c(Cl)c3)n2)CCN1 [Example 107] | 0.299 µM | 1.28 µM | 0.263 µM | – | – | –
3 | Cc1cc(-n2nc(C(=O)N3CCNC(=O)C3)cc2-c2cc(F)cc(Cl)c2)ccn1 [Example 22, 4-{[5-(3-Chloro-5-fluorophenyl)-1-(2-methylpyridin-4-yl)-1H-pyrazol-3-yl]carbonyl}piperazin-2-one] | 0.375 µM | > 3.3 µM | 3.18 µM | – | – | –
4 | O=C(c1cc(-c2cc(F)cc(OC(F)(F)F)c2)n(-c2cccnc2)n1)N1CC[S+]([O-])C1 (racemic) [Example 60-2, {5-[3-Fluoro-5-(trifluoromethoxy)phenyl]-1-(pyridin-3-yl)-1H-pyrazol-3-yl}(1-oxido-1,3-thiazolidin-3-yl)methanone] | – | – | – | 0.084 µM | 0.446 µM | 0.797 µM
5 | COc1cc(OC(F)(F)F)cc(-c2cc(C(=O)N3CCNC(=O)C3)nn2-c2ccnc(Cl)c2)c1 [Example 87, 4-({1-(2-Chloropyridin-4-yl)-5-[3-methoxy-5-(trifluoromethoxy)phenyl]-1H-pyrazol-3-yl}carbonyl)piperazin-2-one] | 0.11 µM | 0.068 µM | 0.618 µM | – | – | –
6 | O=C(c1cc(-c2cc(F)cc(OC(F)(F)F)c2)n(-c2ccnc(Cl)c2)n1)N1CCSC1 [Example 104, {1-(2-Chloropyridin-4-yl)-5-[3-fluoro-5-(trifluoromethoxy)phenyl]-1H-pyrazol-3-yl}(1,3-thiazolidin-3-yl)methanone] | 0.58 µM | ≥ 3.3 µM | > 3.3 µM | – | – | –
7 | O=C1CN(C(=O)c2cc(-c3cc(F)cc(OC(F)(F)F)c3)n(-c3ccnc(Cl)c3)n2)CCN1 [Example 63, 4-({-(2-Chloropyridin-4-yl)-5-[3-fluoro-5-(trifluoromethoxy)phenyl]-1H-pyrazol-3-yl}carbonyl)piperazin-2-one] | 0.354 µM | 0.892 µM | 2.08 µM | – | – | –
8 | O=C1CN(C(=O)c2cc(-c3cc(Br)cc(OC(F)(F)F)c3)n(-c3ccccn3)n2)CN1 [Example 26, 1-({5-[3-Bromo-5-(trifluoromethoxy)phenyl]-1-(pyridin-2-yl)-1H-pyrazol-3-yl}carbonyl)imidazolidin-4-one] | 0.12 µM | 0.071 µM | > 3.3 µM | – | – | –
9 | Cc1cc(-n2nc(C(=O)N3CC[S+]([O-])C3)cc2-c2cc(F)cc(Cl)c2)ccn1 (stereo not drawn) [Example 24, [5-(3-Chloro-5-fluorophenyl)-1-(2-methylpyridin-4-yl)-1H-pyrazol-3-yl](1-oxido-1,3-thiazolidin-3-yl)methanone] | 0.066 µM | > 3.3 µM | 0.668 µM | – | – | –
10 | Cc1cc(-n2nc(C(=O)N3CCNC(=O)C3)cc2-c2cc(Br)cc(OC(F)(F)F)c2)ccn1 [Example 54, 4-({5-[3-Bromo-5-(trifluoromethoxy)phenyl]-1-(2-methylpyridin-4-yl)-1H-pyrazol-3-yl}carbonyl)piperazin-2-one] | 0.323 µM | 0.387 µM | 1.68 µM | – | – | –
11 | O=C1CN(C(=O)c2cc(-c3cc(F)cc(Cl)c3)n(-c3cccc(Cl)n3)n2)CN1 [Example 2, 1-{[5-(3-Chloro-5-fluorophenyl)-1-(6-chloropyridin-2-yl)-1H-pyrazol-3-yl]carbonyl}imidazolidin-4-one] | 0.272 µM | > 3.3 µM | > 3.3 µM | – | – | –
12 | O=C1CN(C(=O)c2cc(-c3cc(Br)cc(OC(F)(F)F)c3)n(-c3ccnc(C(F)(F)F)c3)n2)CCN1 [Example 116, 4-({5-[3-Bromo-5-(trifluoromethoxy)phenyl]-1-[2-(trifluoromethyl)pyridin-4-yl]-1H-pyrazol-3-yl}carbonyl)piperazin-2-one] | 0.648 µM | 0.896 µM | > 3.3 µM | – | – | –
13 | O=C1CN(C(=O)c2cc(-c3cc(F)cc(Cl)c3)n(-c3cccnc3)n2)CN1 [Example 3, 1-{[5-(3-Chloro-5-fluorophenyl)-1-(pyridin-3-yl)-1H I-pyrazol-3-yl]carbonyl}imidazolidin-4-one] | 0.006 µM | 0.067 µM | 0.028 µM | – | – | –
14 | O=C1CN(C(=O)c2cc(-c3cc(F)cc(Cl)c3)n(-c3ccc(Cl)nc3)n2)CN1 [Example 7, 1-{[5-(3-Chloro-5-fluorophenyl)-1-(6-chloropyridin-3-yl)-1H-pyrazol-3-yl]carbonyl}imidazolidin-4-one] | 0.01 µM | 0.018 µM | 0.064 µM | – | – | –

— patent US9296720B2, “Carboxamide-substituted heteroaryl-pyrazoles and the use thereof” (AiCuris GmbH & Co. KG, priority 2011, dated 2016)
